Results on eight compounds are retold here after ChEMBL document CHEMBL1201862, “PubChem BioAssay data set” (2004).

Some test systems named below: SW-620; SNB-75; HOP-92; COLO 205; SK-MEL-5; NCI-H522; PC-3; HL-60; U-251; OVCAR-8; NCI/ADR-RES; MDA-MB-435; SF-539; HOP-62; SNB-19; ACHN; NCI-H226; UO-31; 786-0.
Common to all, as to test: NCI tumour cell line growth inhibition, 48 h

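Cultured in 96-well plates, cells were exposed to test compound for 48 hours across five concentrations. GI50 is the concentration that inhibits growth by half.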 Active and inactive are the calls of the source. Cut-off read from the data, not from the text of the source: active = GI50 up to about 1.1 µM and inactive = higher.

For `COc1ccc(NC2C(=O)C3(C)CCC2C3(C)C)cc1` (configuration not stated), the GI50 with SW-620 is > 100 µM (inactive); with SNB-75, > 100 µM (inactive); in the assay on HOP-92, 33.4 µM (inactive); with COLO 205 it was > 100 µM (inactive); in the assay on SK-MEL-5 it was 34.5 µM (inactive); in the assay with NCI-H522 it was 79.4 µM (inactive). In addition, the GI50 in the assay with PC-3 is 97.7 µM (inactive); in the assay on HL-60, 29.3 µM (inactive); with U-251 it was > 100 µM (inactive); in the assay on OVCAR-8, > 100 µM (inactive); in the assay with NCI/ADR-RES, > 100 µM (inactive); in the assay with MDA-MB-435 it was > 100 µM (inactive). Moreover, the GI50 in the assay with SF-539 was > 100 µM (inactive); in the assay with HOP-62 it was > 100 µM (inactive); with SNB-19, > 100 µM (inactive); with ACHN, > 100 µM (inactive); in the assay on NCI-H226, 67.8 µM (inactive); in the assay with UO-31, 54.7 µM (inactive). For the same compound, the GI50 in the assay with 786-0 is > 100 µM (inactive).
As for `CCCc1[nH]nc(C(N)=O)c1/N=N/N(C)C`, the GI50 in the assay on SW-620 was 63.7 µM (inactive); in the assay with SNB-75 it was 16.1 µM (inactive); in the assay with HOP-92, 33.3 µM (inactive); with COLO 205, 63.2 µM (inactive); in the assay on SK-MEL-5, 50.1 µM (inactive); with NCI-H522, 17.8 µM (inactive). The GI50 in the assay on PC-3 was > 100 µM (inactive); in the assay on HL-60, 8.34 µM (inactive); in the assay with U-251, 55.8 µM (inactive); with OVCAR-8, 76.2 µM (inactive); in the assay on NCI/ADR-RES it was 91 µM (inactive); in the assay on MDA-MB-435, > 100 µM (inactive). The GI50 with SF-539 is 48.4 µM (inactive); in the assay with HOP-62 it was 58.7 µM (inactive); in the assay with SNB-19 it was > 100 µM (inactive); in the assay on ACHN it was 44.2 µM (inactive); in the assay on NCI-H226 it was 38.9 µM (inactive); with UO-31, 1.16 µM (inactive). Besides, the GI50 with 786-0 is 65.5 µM (inactive).
Regarding `c1cc2c(cc1NC1=NCCO1)OCO2`, the GI50 with SW-620 is > 100 µM (inactive); in the assay with SNB-75, 45.9 µM (inactive); in the assay on HOP-92, > 70.3 µM (inactive); with COLO 205, > 100 µM (inactive); in the assay with SK-MEL-5, > 100 µM (inactive); in the assay with NCI-H522, > 100 µM (inactive). Besides, the GI50 in the assay on PC-3 was > 100 µM (inactive); with HL-60, 41.2 µM (inactive); in the assay on U-251, > 100 µM (inactive); in the assay on OVCAR-8, > 100 µM (inactive); in the assay with NCI/ADR-RES it was > 100 µM (inactive); in the assay on MDA-MB-435 it was 50.4 µM (inactive). In addition, the GI50 in the assay on SF-539, in the assay with HOP-62, in the assay with SNB-19, with ACHN, in the assay with NCI-H226 and in the assay with UO-31 was > 100 µM (inactive) in each case. For the same compound, in the assay with 786-0, the GI50 is > 100 µM (inactive).
For `c1ccc2c(c1)c1c3c(c4c(n32)=NCCN4)CCC1`, the GI50 is 28.5 µM (inactive) in the assay with SW-620; 21.7 µM (inactive) in the assay on SNB-75; 25.6 µM (inactive) in the assay with HOP-92; 28.1 µM (inactive) in the assay on COLO 205; 32.4 µM (inactive) in the assay on SK-MEL-5; 20.7 µM (inactive) in the assay on NCI-H522. In addition, the GI50 in the assay with PC-3 is 26.6 µM (inactive); in the assay on HL-60, 44.4 µM (inactive); in the assay with U-251, 33.8 µM (inactive); in the assay with OVCAR-8 it was 39.6 µM (inactive); in the assay with NCI/ADR-RES, 27.9 µM (inactive); in the assay with MDA-MB-435, 29.7 µM (inactive). The GI50 in the assay on SF-539 is 46.1 µM (inactive); in the assay on HOP-62 it was 36.1 µM (inactive); with SNB-19 it was 89.9 µM (inactive); in the assay on ACHN, 40.9 µM (inactive); with NCI-H226 it was 19.2 µM (inactive); with UO-31, 45.2 µM (inactive). Further, the GI50 in the assay on 786-0 was 28.1 µM (inactive).
For `COP(=N[Si](C)(C)C)(OC)OC`, the GI50 in the assay on SW-620, with SNB-75, in the assay on HOP-92, in the assay with COLO 205, with SK-MEL-5 and with NCI-H522 was > 100 µM (inactive) in each case. Besides, the GI50 in the assay with PC-3, in the assay with HL-60, in the assay on U-251, in the assay with OVCAR-8, with NCI/ADR-RES and in the assay on MDA-MB-435 was > 100 µM (inactive) throughout. In addition, the GI50 in the assay with SF-539, in the assay with HOP-62, in the assay with SNB-19, in the assay with ACHN, in the assay on NCI-H226 and in the assay on UO-31 was > 100 µM (inactive) throughout. Moreover, the GI50 in the assay with 786-0 is > 100 µM (inactive).
Consider `CCOC(=O)[C@@H]1ON2OC(OC3CCCC3(c3ccccc3)c3ccccc3)C(OC(C)=O)[C@H]3OC(=O)[C@@H]1C32` (some centres not stated), for which the GI50 with SW-620 was > 100 µM (inactive); in the assay with SNB-75, > 100 µM (inactive); in the assay on HOP-92 it was > 100 µM (inactive); in the assay on COLO 205 it was > 100 µM (inactive); in the assay on SK-MEL-5, 42.9 µM (inactive); with NCI-H522, 21.2 µM (inactive). Besides, the GI50 in the assay on PC-3 is > 100 µM (inactive); in the assay with HL-60, 31.3 µM (inactive); with U-251 it was 42.8 µM (inactive); with OVCAR-8, > 100 µM (inactive); with NCI/ADR-RES, > 100 µM (inactive); in the assay on MDA-MB-435, 51.1 µM (inactive). In addition, the GI50 with SF-539 is 56.6 µM (inactive); with HOP-62, > 100 µM (inactive); in the assay on SNB-19, > 100 µM (inactive); with ACHN, 29.9 µM (inactive); in the assay with NCI-H226 it was > 100 µM (inactive); in the assay on UO-31, 36.4 µM (inactive). For the same compound, the GI50 with 786-0 was 92.3 µM (inactive).
As to `CC(Cl)(CCC(Cl)C(C)(C)Cl)C(=O)CBr` (configuration not stated), the GI50 is 2.18 µM (inactive) in the assay on SW-620; 13.6 µM (inactive) in the assay on SNB-75; 7.93 µM (inactive) with HOP-92; 6.27 µM (inactive) in the assay on COLO 205; 8.49 µM (inactive) with SK-MEL-5; 1.95 µM (inactive) in the assay with NCI-H522. Further, the GI50 was 14.6 µM (inactive) in the assay with PC-3; 2.24 µM (inactive) with HL-60; 15.6 µM (inactive) with U-251; 10.5 µM (inactive) in the assay with OVCAR-8; 22.8 µM (inactive) with NCI/ADR-RES; 14.2 µM (inactive) with MDA-MB-435. The GI50 was 16.1 µM (inactive) with SF-539; 18.2 µM (inactive) in the assay on HOP-62; 30.3 µM (inactive) in the assay with SNB-19; 8.04 µM (inactive) in the assay with ACHN; 16.8 µM (inactive) in the assay with NCI-H226; 9.31 µM (inactive) in the assay with UO-31. In addition, the GI50 in the assay with 786-0 was 7.94 µM (inactive).
`COC1=C(C)C(=O)c2c(c(COC(N)=O)c3n2CC2C3N2C)C1=O` (configuration not stated): the GI50 with SW-620 was < 0.0113 µM (active); in the assay with SNB-75 it was < 0.0179 µM (active); with HOP-92, 0.148 µM (active); in the assay with COLO 205, < 0.0157 µM (active); in the assay with SK-MEL-5, 0.0209 µM (active); in the assay with NCI-H522 it was < 0.0124 µM (active). The GI50 in the assay on PC-3 was 0.0555 µM (active); with HL-60, 0.0296 µM (active); in the assay on U-251, < 0.01 µM (active); with OVCAR-8, < 0.0191 µM (active); in the assay with NCI/ADR-RES, < 0.025 µM (active); in the assay on MDA-MB-435, 0.0189 µM (active). Besides, the GI50 in the assay on SF-539 was 0.0112 µM (active); in the assay on HOP-62, < 0.01 µM (active); with SNB-19 it was < 0.0115 µM (active); in the assay with ACHN, < 0.01 µM (active); in the assay on NCI-H226, 0.0766 µM (active); with UO-31 it was < 0.0145 µM (active). Also, the GI50 in the assay on 786-0 was < 0.01 µM (active).
